Assay: Brookfield viscosity of acyl lactylates alone and 1:1 with glycols
Format: physicochemical
Details: Brookfield 95, 5 RPM, 25° C.; acyl lactylate alone
Excerpt: An advantage of compositions including an acyl lactylate and a glycol is the reduction of viscosity that is present in acyl lactylates, which is rather high and increases difficulty in processing. […] Of course, it is expected that a lowering of viscosity of the acyl lactylates would be realized in ratios of acyl lactylates:glycols other than 1:1 as well.

CCCCCCCCCCCC(=O)OC(C)C(=O)OC(C)C(=O)[O-].[Na+] (stereo not drawn) [Sodium Lauroyl Lactylate]
Viscosity: 1,520,000 cP

Sodium Caproyl/Lauroyl Lactylate
Viscosity: 1,192,000 cP

Sodium Isostearoyl Lactylate
Viscosity: 1,080,000 cP

— patent publication US11655994B2, “Antimicrobial composition including an acyl lactylate and a glycol and methods of inhibiting microbial growth utilizing the same” (Kimberly-Clark Worldwide, Inc., priority 2017, dated 2023)
